# Values of other authors as cited in US20060024344A1 (priority 2004, published 2006).
# “Also recorded” adds a separate entry of the source.
# Legend:
# Conditions in all cases: in vivo
# fish in schoold = system: fish in schoold
# [1] = system: rainbow trout, blugill and channel catfish
# human tongue = system: human tongue
# human skin = system: human skin
# sharks [2] = system: sharks
# sharks [3] = system: sharks; remark: listed apart in the source
# captive lemon sharks = system: captive lemon sharks
# sharks [4] = system: sharks; remark: listed apart in the source
Compound,observed effect on fish (fish in schoold),efficiency to repel sharks (sharks [3]),also measured
C=CCN=C=S [allyl isothiocyanate],strongly stimulated the entire body,,
COc1ccc(O)c(C(C)(C)C)c1 [butylated hydroxyanisole],,,toxicity for fishes compared with zebra mussel [1]: substantially greater
"COc1cc(CNC(=O)CCCC/C=C/C(C)C)ccc1O [capsaicin, 8-methyl-n-vanillyl-6-nonenamide]",,,"concentration at which detected in humans (human tongue): 0.1 µg/mL; concentration provoking a sensation of perceptible warmth on tongue (human tongue): 1 µg/mL; concentration provoking a sensation of persistent burning on tongue (human tongue): 10 µg/mL; skin reaction (flare, irritation) (human skin): no flare and irritation; skin temperature below which burning pain and hyperaesthesia cease completely (human skin): below 28 deg C.; concentration producing perceptible warmth at subcutaneous and intramuscular level (human skin; sc): 10 µg/mL; concentration producing persistent burning at subcutaneous and intramuscular level (human skin; sc): 100 µg/mL"
CCS [ethyl mercaptan],induced tetanic paralysis,,
CC1(C)[C@@H]2CC[C@@]1(C)[C@H](OC(=O)CSC#N)C2 [isobornyl thiocyanoacetate],induced tetanic paralysis,,
CC(=O)OC[C@H](C)CCC[C@@H](C)[C@H]1CCC2C3C(C[C@H](O)[C@@]21C)[C@@]1(C)CC[C@@H](O)C[C@H]1C[C@H]3O[C@@H]1O[C@H](CO)[C@H](O)[C@H](O)[C@H]1O (stereo partly drawn) [mosesin-4],,,shark repellent activity (sharks [2]): shows shark repellent activity
O=C(CBr)c1ccccc1 [phenacyl bromide],seriously irritated the eyes and impaired vision,,
O=C(CCl)c1ccccc1 [phenacyl chloride],seriously irritated the eyes and impaired vision,,
Oc1ccccc1 [phenol],strongly stimulated the entire body,,
O=S([O-])O.[Na+] [sodium bisulfite],respiratory impairment,,
CCCCCCCCCCOS(=O)(=O)[O-].[Na+] [sodium decyl sulfate],,revealed efficiency to repel sharks,
CCCCCCCCCCCCOS(=O)(=O)[O-].[Na+] [sodium dodecyl sulfate],,revealed efficiency to repel sharks,shark repellent effect (captive lemon sharks): strongly repelled sharks
CCCCCCCCCCCCCCCCCCOS(=O)(=O)[O-].[Na+] [sodium octadecyl sulfate],,revealed efficiency to repel sharks,
CCCCCCCCOS(=O)(=O)[O-].[Na+] [sodium octyl sulfate],,revealed efficiency to repel sharks,
CCCCCCCCCCCCCCOS(=O)(=O)[O-].[Na+] [sodium tetradecyl sulfate],,revealed efficiency to repel sharks,
O=C(OC[C@H]1O[C@@H](OC(=O)c2cc(O)c(O)c(OC(=O)c3cc(O)c(O)c(O)c3)c2)[C@H](OC(=O)c2cc(O)c(O)c(OC(=O)c3cc(O)c(O)c(O)c3)c2)[C@@H](OC(=O)c2cc(O)c(O)c(OC(=O)c3cc(O)c(O)c(O)c3)c2)[C@@H]1OC(=O)c1cc(O)c(O)c(OC(=O)c2cc(O)c(O)c(O)c2)c1)c1cc(O)c(O)c(OC(=O)c2cc(O)c(O)c(O)c2)c1 [tannic acid],,,toxicity for fishes compared with zebra mussel [1]: substantially greater
"N#CSCCCCC(Cl)(Cl)Cl [thiocyanic acid 5,5,5-trichloro amyl ester]",flaccid paralysis; also recorded: respiratory impairment,,
copper acetate,,,effectivity as a shark deterrent (sharks [4]): reduced effectivity as a deterrent
magnesium dodecyl sulfate,,revealed efficiency to repel sharks,
sodium dodecyl ether sulfate,,revealed efficiency to repel sharks,
